From PubChem BioAssay (NCI)
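Interpolation was linear, between the two tested concentrations surrounding the appropriate level; five concentrations were tested over 48 hours in 96-well plates. The concentration for full growth arrest is given as TGI.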

Legend:
Test in all cases: inhibition of tumour cell growth, NCI panel, 48 h
CAKI-1 renal = tested on: CAKI-1 renal
EKVX NSCLC = tested on: EKVX NSCLC
NCI/ADR-RES ovarian = tested on: NCI/ADR-RES ovarian
OVCAR-8 ovarian = tested on: OVCAR-8 ovarian
MDA-MB-231 breast = tested on: MDA-MB-231 breast
T-47D breast = tested on: T-47D breast
MOLT-4 leukemia = tested on: MOLT-4 leukemia
NCI-H460 lung = tested on: NCI-H460 lung
HT29 colon = tested on: HT29 colon
OVCAR-3 ovarian = tested on: OVCAR-3 ovarian
U251 CNS = tested on: U251 CNS
KM12 colon = tested on: KM12 colon
HOP-62 NSCLC = tested on: HOP-62 NSCLC
NCI-H522 lung = tested on: NCI-H522 lung
UACC-257 melanoma = tested on: UACC-257 melanoma
TK-10 renal = tested on: TK-10 renal
MALME-3M melanoma = tested on: MALME-3M melanoma
SF-539 CNS = tested on: SF-539 CNS
SK-MEL-2 melanoma = tested on: SK-MEL-2 melanoma
IGROV1 ovarian = tested on: IGROV1 ovarian
ACHN renal = tested on: ACHN renal
NCI-H226 lung = tested on: NCI-H226 lung
LOX IMVI melanoma = tested on: LOX IMVI melanoma
HL-60(TB) leukemia = tested on: HL-60(TB) leukemia
SK-OV-3 ovarian = tested on: SK-OV-3 ovarian
OVCAR-4 ovarian = tested on: OVCAR-4 ovarian
HS 578T breast = tested on: HS 578T breast
SNB-19 CNS = tested on: SNB-19 CNS
SK-MEL-5 melanoma = tested on: SK-MEL-5 melanoma
COLO 205 colon = tested on: COLO 205 colon
A549 NSCLC = tested on: A549 NSCLC
RPMI-8226 leukemia = tested on: RPMI-8226 leukemia
MDA-MB-435 = tested on: MDA-MB-435
A498 renal = tested on: A498 renal
BT-549 breast = tested on: BT-549 breast
SK-MEL-28 melanoma = tested on: SK-MEL-28 melanoma
OVCAR-5 ovarian = tested on: OVCAR-5 ovarian
UACC-62 melanoma = tested on: UACC-62 melanoma
SF-295 CNS = tested on: SF-295 CNS
CCRF-CEM leukemia = tested on: CCRF-CEM leukemia
HOP-92 NSCLC = tested on: HOP-92 NSCLC
MDA-N = tested on: MDA-N
MCF7 breast = tested on: MCF7 breast
NCI-H23 lung = tested on: NCI-H23 lung
786-0 renal = tested on: 786-0 renal
SF-268 CNS = tested on: SF-268 CNS
HCC-2998 colon = tested on: HCC-2998 colon
M14 melanoma = tested on: M14 melanoma
K-562 leukemia = tested on: K-562 leukemia
RXF 393 renal = tested on: RXF 393 renal
DU-145 prostate = tested on: DU-145 prostate
SN12C renal = tested on: SN12C renal
SW-620 colon = tested on: SW-620 colon
HCT-15 colon = tested on: HCT-15 colon
PC-3 prostate = tested on: PC-3 prostate
SNB-75 CNS = tested on: SNB-75 CNS
HCT-116 colon = tested on: HCT-116 colon
SR leukemia = tested on: SR leukemia
UO-31 renal = tested on: UO-31 renal

O=C(c1cc2ccccc2[nH]1)N1C2CCC1CN(CCOC(c1ccc(F)cc1)c1ccc(F)cc1)CC2 (stereo not given)
TGI (CAKI-1 renal): > 100 µM
TGI (EKVX NSCLC): > 100 µM
TGI (NCI/ADR-RES ovarian): > 100 µM
TGI (OVCAR-8 ovarian): > 100 µM
TGI (MDA-MB-231 breast): > 100 µM
TGI (T-47D breast): > 100 µM
TGI (MOLT-4 leukemia): > 100 µM
TGI (NCI-H460 lung): > 100 µM
TGI (HT29 colon): > 100 µM
TGI (OVCAR-3 ovarian): > 100 µM
TGI (U251 CNS): > 100 µM
TGI (KM12 colon): > 100 µM
TGI (HOP-62 NSCLC): > 100 µM
TGI (NCI-H522 lung): > 100 µM
TGI (UACC-257 melanoma): > 100 µM
TGI (TK-10 renal): > 100 µM
TGI (MALME-3M melanoma): > 100 µM
TGI (SF-539 CNS): > 100 µM
TGI (SK-MEL-2 melanoma): > 100 µM
TGI (IGROV1 ovarian): > 100 µM
TGI (ACHN renal): > 100 µM
TGI (NCI-H226 lung): > 100 µM
TGI (LOX IMVI melanoma): > 100 µM
TGI (HL-60(TB) leukemia): > 100 µM
TGI (SK-OV-3 ovarian): > 100 µM
TGI (OVCAR-4 ovarian): > 100 µM
TGI (HS 578T breast): > 100 µM
TGI (SNB-19 CNS): > 100 µM
TGI (SK-MEL-5 melanoma): > 100 µM
TGI (COLO 205 colon): > 100 µM
TGI (A549 NSCLC): > 100 µM
TGI (RPMI-8226 leukemia): > 100 µM
TGI (MDA-MB-435): > 100 µM
TGI (A498 renal): > 100 µM
TGI (BT-549 breast): > 100 µM
TGI (SK-MEL-28 melanoma): > 100 µM
TGI (OVCAR-5 ovarian): > 100 µM
TGI (UACC-62 melanoma): > 100 µM
TGI (SF-295 CNS): > 100 µM
TGI (CCRF-CEM leukemia): > 100 µM
TGI (HOP-92 NSCLC): > 100 µM
TGI (MDA-N): > 100 µM
TGI (MCF7 breast): > 100 µM
TGI (NCI-H23 lung): > 100 µM
TGI (786-0 renal): > 100 µM
TGI (SF-268 CNS): > 100 µM
TGI (HCC-2998 colon): > 100 µM
TGI (M14 melanoma): > 100 µM
TGI (K-562 leukemia): > 100 µM
TGI (RXF 393 renal): 8.41 µM
TGI (DU-145 prostate): > 100 µM
TGI (SN12C renal): > 100 µM
TGI (SW-620 colon): > 100 µM
TGI (HCT-15 colon): > 100 µM
TGI (PC-3 prostate): > 100 µM
TGI (SNB-75 CNS): > 100 µM
TGI (HCT-116 colon): > 100 µM

COc1cc(/C=C2/SC(c3ccccc3)N(Cc3ccccc3)C2=O)cc(OC)c1OC (stereo not given)
TGI (CAKI-1 renal): > 100 µM
TGI (EKVX NSCLC): > 100 µM
TGI (NCI/ADR-RES ovarian): > 100 µM
TGI (OVCAR-8 ovarian): > 100 µM
TGI (MDA-MB-231 breast): > 100 µM
TGI (T-47D breast): > 100 µM
TGI (MOLT-4 leukemia): 63.2 µM
TGI (NCI-H460 lung): > 100 µM
TGI (HT29 colon): > 100 µM
TGI (OVCAR-3 ovarian): > 100 µM
TGI (SR leukemia): 45.1 µM
TGI (U251 CNS): > 100 µM
TGI (KM12 colon): > 100 µM
TGI (HOP-62 NSCLC): > 100 µM
TGI (NCI-H522 lung): 63 µM
TGI (UACC-257 melanoma): > 100 µM
TGI (TK-10 renal): > 100 µM
TGI (MALME-3M melanoma): > 100 µM
TGI (SK-MEL-2 melanoma): > 100 µM
TGI (ACHN renal): > 100 µM
TGI (NCI-H226 lung): > 100 µM
TGI (LOX IMVI melanoma): > 100 µM
TGI (SK-OV-3 ovarian): > 100 µM
TGI (OVCAR-4 ovarian): > 100 µM
TGI (HS 578T breast): > 100 µM
TGI (SNB-19 CNS): > 100 µM
TGI (SK-MEL-5 melanoma): 28 µM
TGI (COLO 205 colon): 45.9 µM
TGI (UO-31 renal): > 100 µM
TGI (A549 NSCLC): > 100 µM
TGI (RPMI-8226 leukemia): 75.1 µM
TGI (MDA-MB-435): > 100 µM
TGI (A498 renal): > 100 µM
TGI (BT-549 breast): > 100 µM
TGI (SK-MEL-28 melanoma): > 100 µM
TGI (OVCAR-5 ovarian): > 100 µM
TGI (UACC-62 melanoma): > 100 µM
TGI (SF-295 CNS): > 100 µM
TGI (HOP-92 NSCLC): > 100 µM
TGI (MDA-N): > 100 µM
TGI (MCF7 breast): > 100 µM
TGI (NCI-H23 lung): > 100 µM
TGI (786-0 renal): > 100 µM
TGI (SF-268 CNS): > 100 µM
TGI (HCC-2998 colon): > 100 µM
TGI (M14 melanoma): > 100 µM
TGI (K-562 leukemia): > 100 µM
TGI (RXF 393 renal): 72.3 µM
TGI (DU-145 prostate): > 100 µM
TGI (SN12C renal): > 100 µM
TGI (SW-620 colon): > 100 µM
TGI (HCT-15 colon): > 100 µM
TGI (HCT-116 colon): > 100 µM
